Results reported in patent publication US20240382443A1, “GENERATION OF S-NITROSOACETYLCYSTEINE” (The UAB Research Foundation, priority 2023, published 2024).

Legend:
[1] = test system: rats with severe Sugen-hypoxia-induced pulmonary hypertension; assay: Right ventricular systolic pressure (RVSP) after inhaled aerosol in Sugen-hypoxia pulmonary hypertension rats; type: in vivo, Sprague Dawley rats
Method: Stock SNOAC was prepared by reacting an appropriate amount of sodium nitrite and NAC in water just before use. The pH was adjusted to 7.0 with alkaline solution and then transferred to an Aeroneb Nebulizer (Kent Scientific). Severe PH was induced in Sprague Dawley rats by subcutaneous injection of vascular endothelial growth factor receptor antagonist Sugen 5416 followed by exposure to hypoxia (10% O2) for 3 weeks and normoxia for 4 weeks. Right ventricular systolic pressure (RVSP) was measured invasively in a closed-chest, spontaneously breathing rat model as an indicator of pulmonary arterial pressure. Rats were anesthetized with 1.5% isoflurane in air with a flow rate of 2 L/min. A blood pressure catheter was inserted into the right ventricle through the jugular vein, and baseline RVSP was measured. After the pressure stabilized, the aerosolized drug was introduced into the isoflurane line for 5 minutes.

[2] = test system: angiotension-2—induced acute PH; assay: Angiotensin-2-induced acute pulmonary hypertension in control rats; type: in vivo; details: inhalation
cardiac proteins = assay: SNO-RAC proteomics of rat heart tissue; type: in vivo, rats; details: single oral gavage dose, hearts collected after 1 hour
Method: FIG. 12 is a graphical representation of proteomics analysis of rat heart tissue. A single dose of nitrite and NAC at neutral pH were administered by oral gavage to rats. Rats were sacrificed after 1 hour and the hearts were collected. Total RSNO sites were identified using the a SNO-RAC (resin assisted capture) protocol. Proteomics was performed using liquid chromatography-tandem mass spectrometry (LC-MS/MS) analysis.

[3] = Plasma S-nitrosothiols and nitrite after sublingual SNOAC in rats; type: in vivo
Method: Because the chemicals cannot be placed in the buccal cavity of experimental animals, SNOAC was prepared in a test tube just before use and then placed in the sublingual space. Normotensive rats were anesthetized and the femoral artery was cannulated to collect blood. Stock SNOAC at 30 μmoles/mL was prepared by reacting sodium nitrite with NAC at the molar ratio of 1:2 in water just before use. It is believed that all of the nitrite is converted to SNOAC under these conditions. After baseline blood samples were collected in heparinized tubes, approximately 50 μL of SNOAC solution (0.4 mg nitrite and 1.87 mg NAC/kg body weight) was placed under the tongue of anesthetized rats. Blood was collected at 10-minute intervals. The plasma was separated, and nitrite and total S-nitrosothiols in plasma were determined. […] There was no change in plasma nitrite levels.
In this study, the sublingual and buccal cavity medication route of SNOAC generation and administration for acute dosing was first examined. A dose of NAC and sodium nitrite with 25 μL of water was placed under the tongue of mice or rats. Specifically, a dose of 0.1 mg of nitrite and 10 mg of NAC was placed under the tongue of the subject, blood was collected varying time points, and total S-nitrosothiols (SNO) were measured by a chemiluminescence method. […]

[4] = RSNO decomposition in water monitored by spectra; type: physicochemical; details: over 15 hours; from 15 mM sodium nitrite and 60 mM N-acetylcysteine in water
Method: FIG. 11 is a graphical representation of generation and decomposition of S-nitroso-N-acetylcysteine (RSNO). In the left panel, RSNO generation is show when 15 mM sodium nitrite is reacted with 60 mM N-acetylcysteine (RSH) in water. All nitrite is converted instantly to RSNO. In the right panel, RSNO decomposition is monitored by recording spectra at 1.5 hour intervals over 15 hours. Approximately 50% of the RSNO was decomposed over the 15 hours.
Nitrite is converted to […] by reacting with RSH in water. RSNOs have potent vasodilatory, anti-inflammatory, and antiplatelet activities. As shown by the comparison of generation of RSNO in FIG. 11, left panel, with degradation in FIG. 11, right panel, the instability of RSNO after preparation is a major hindrance to use them as NO donors to restore the NO bio-availability that decrease with aging and pathophysiological conditions of cardiovascular diseases. Therefore, RSNOs have proven easy to prepare, but not typically stable after preparation.

[5] = Total S-nitrosothiols in blood after sublingual nitrite and NAC in mice; type: in vivo; details: 0.1 mg nitrite and 10 mg NAC
Method: FIG. 14 is a graphical representation of the transfer of the SNOAC that is generated in the sublingual space to blood circulation in mice. The concentration of total S-nitrosothiols at 1, 30 min., and 60 min. was determined after mice were sublingually administered 0.1 mg nitrite and 10 mg NAC in 50 μL of water, generating SNOAC.
In this study, the sublingual and buccal cavity medication route of SNOAC generation and administration for acute dosing was first examined. A dose of NAC and sodium nitrite with 25 μL of water was placed under the tongue of mice or rats. Specifically, a dose of 0.1 mg of nitrite and 10 mg of NAC was placed under the tongue of the subject, blood was collected varying time points, and total S-nitrosothiols (SNO) were measured by a chemiluminescence method. […] As shown in FIG. 14 for mice and FIG. 4 for rats, SNOAC is generated in the buccal cavity and absorbed into circulation.

normotensive rats [6] = assay: Mean arterial pressure after oral gavage in normotensive rats; type: in vivo; details: 0.5 mL
Method: The mean arterial pressure (MAP) was continually monitored.
The MAP in rats was measured as described for sublingual administration. After baseline blood pressure was measured, 0.5 mL of nitrite alone, NAC alone, or the nitrite−NAC mixture was administered by gavage.

[7] = Plasma and organ RSNOs after oral gavage of nitrite in neutral NAC; type: in vivo, rats; details: single agent alone, nitrite 1.5 mg/kg, NAC 50 mg/kg
Method: […] BP was measured by femoral intra-arterial catheterization. Chronic studies were carried out in an L-NAME (eNOS inhibitor) induced hypertensive mouse model. Mice were randomized into five groups 1) control, 2) control L-NAME (0.1 g/L), 3) L-NAME+nitrite (20 mg/L), 4) L-NAME+nitrite (10 mg/L)+NAC (0.5 g/L), 5) L-NAME+nitrite (20 mg/L)+NAC 0.5 g/L) in drinking water for 2 months. Plasma S-nitrosothiols blood pressure (tail cuff method), arterial stiffness (Doppler method) were determined.

eNOS^-/- mice = assay: Tail-cuff MAP in eNOS-/- hypertensive mice, drinking water; type: in vivo; details: nitrite 50 mg/L, NAC 500 mg/L in drinking water for 2 months, versus eNOS-/- control
Method: 15-week-old wild-type (WT) and eNOS^-/- mice were divided into 5 groups. (1) WT control, (2) eNOS^-/- control, (3) eNOS^-/-+nitrite, (4) eNOS^-/-+NAC, and (5) eNOS^-/-+nitrite+NAC. NAC was dissolved in the drinking water, and pH was adjusted to 7.0 to prevent initial nitrite reaction with NAC. The mice were given pharmacological doses of nitrite (50 mg/L) and NAC (500 mg/L) individually or in combination for 2 months.

normotensive rats [8] = assay: Femoral mean arterial pressure after sublingual administration in normotensive rats; type: in vivo; details: 0.2, 0.4 or 0.8 mg nitrite/kg with 10 mg NAC
Method: Normotensive rats were anesthetized with isoflurane. The femoral artery was catheterized with a Micro-Tip Catheter Transducer (AD Instruments, Houston, TX) for monitoring of blood pressure. Once the baseline blood pressure was stabilized, at approximately 30 minutes, rats were treated sublingually with 50 μL of SNOAC generated by reacting 0.2 mg, 0.4 mg, or 0.8 mg nitrite/kg body weight with a fixed concentration of 10 mg NAC (FIG. 5). Control rats were treated with nitrite or NAC alone. The mean arterial pressure (MAP) was continually monitored.

[9] = test system: mice with L-NAME-induced systemic hypertension; assay: L-NAME-induced systemic hypertension in mice, drinking water; type: in vivo; details: L-NAME-treated mice, NAC 0.5 g/L or nitrite 20 mg/L alone, 2 months
Method: L-NAME (N-nitro-L-arginine methyl ester) is an inhibitor of eNOS enzyme activity. Administering L-NAME in the drinking water of animals induces systemic hypertension by decreasing NO synthesis in blood vessels. In this study, mice were fed L-NAME alone (0.1 g/L) or L-NAME+NAC (0.5 g/L), L-NAME+nitrite (20 mg/L), or L-NAME+NAC with one of two nitrite doses (i.e., 10 mg/L or 20 mg/L) in drinking water for 2 months. Mean arterial blood pressure was measured by the tail-cuff method (Kent Scientific, Torrington, CT).
Acute doses of nitrite (0.1 to 1 mg/kg B. wt.) or NAC (10 to 50 mg/kg B. wt.) alone or in combination were administered sublingually or by oral gavage to anesthetized Wistar rats and blood collected at varying time points for measurement of total plasma SNOs by chemiluminescence method. BP was measured by femoral intra-arterial catheterization. Chronic studies were carried out in an L-NAME (eNOS inhibitor) induced hypertensive mouse model. Mice were randomized into five groups 1) control, 2) control L-NAME (0.1 g/L), 3) L-NAME+nitrite (20 mg/L), 4) L-NAME+nitrite (10 mg/L)+NAC (0.5 g/L), 5) L-NAME+nitrite (20 mg/L)+NAC 0.5 g/L) in drinking water for 2 months. Plasma S-nitrosothiols blood pressure (tail cuff method), arterial stiffness (Doppler method) were determined.

[10] = test system: Spontaneously Hypertensive Rats (SHR); assay: Tail-cuff MAP in SHR and WKY rats, drinking water; type: in vivo; details: NAC 1.2 g/L, nitrite 60 mg/L in drinking water, end of 3 months, versus SHR control
Method: SHR rats are a well-established model used to study essential hypertension. Normotensive Wistar Kyoto rats (WKY) were used as a control group. Rats were fed with NAC (1.2 g/L), nitrite (60 mg/L), or a combination of the two in drinking water for 3 months. Mean arterial blood pressure was measured by the tail-cuff method once each month.

Row | Compound | RVSP course after cessation of inhalation ([1]; hypertensive rats) | MAP (normotensive rats [6]) | MAP (eNOS^-/- mice) | mean arterial pressure (MAP) (normotensive rats [8]) | effect on RVSP of inhaled precursor molecules alone ([1]; hypertensive rats) | MAP [9] | MAP [10] | also measured
1 | nitric oxide [NO gas] | rapidly bounced back to baseline after cessation | – | – | – | – | – | – | RVSP during inhalation of NO gas ([1]; hypertensive rats, 30 ppm inhaled for 5 minutes): rapid decrease in RVSP
2 | CC(=O)N[C@@H](CSN=O)C(=O)O [SNOAC, S-nitroso-N-acetylcysteine] | slowly increased over the following 40 minutes, while still remaining lower than the baseline value | – | – | – | – | – | – | angiotensin-2-induced acute PH [2]: significantly decreased; S-nitrosylation of cardiac proteins (cardiac proteins): increased with increasing the dose of RSNO; RVSP change in control animals ([1]; control animals, baseline RVSP 30 mmHg): did not change significantly; RVSP after another dose of aerosolized drug after 40 minutes ([1]; hypertensive rats): sustained decrease in RVSP that was longer than after the initial dose; time the RVSP decrease was sustained at the same level after cessation of drug ([1]; hypertensive rats): 5 min; RVSP after inhalation of aerosolized drug ([1]; hypertensive rats, baseline RVSP 125 mmHg, inhalation for 5 minutes): 96 mmHg; plasma nitrite levels ([3]; after sublingual SNOAC): no change; total plasma S-nitrosothiols (SNO) over time ([3]; rats, sublingual): increased with increasing the time; RSNO decomposed [4]: Approximately 50%; total S-nitrosothiols (SNO) over time [5]: increased with increasing the time; life span (SNOAC life span): about 30 min
3 | CC(=O)N[C@@H](CS)C(=O)O [NAC, N-acetylcysteine] | – | neither nitrite nor NAC alone altered the blood pressure | no significant change | no change | no effect | no significant change | modestly decreased | increase in plasma RSNOs [7]: no change
4 | O=NO [nitrite, sodium nitrite] | – | neither nitrite nor NAC alone altered the blood pressure | no significant change | no change | no effect | no significant change | no effect | effect on PH at higher doses ([1]; even at higher doses): No effect
